Here are results for seven molecules from US10087148B2, “Quinazolines as biogenic amine transport modulators” (THE UNITED STATES OF AMERICA AS REPRESENTED BY THE …, priority 2014, dated 2018).

Assay [1] deals with T1, dopamine transporter (DAT) (Rattus norvegicus (Rat), UniProt P23977). Kind of assay: Dopamine transporter-mediated [3H]MPP+ release (d-amphetamine-induced, shift experiments) in rat caudate synaptosomes. The class given is biochemical. Particulars: for Apparent Kc: [Blocker]/((EC50-2/EC50-1) − 1); for Emax: read-out: d-Amphetamine Emax in presence of blocker, blocker concentration per row, mean ± S.D., n = 3.
T1 sequence (P23977 whole entry): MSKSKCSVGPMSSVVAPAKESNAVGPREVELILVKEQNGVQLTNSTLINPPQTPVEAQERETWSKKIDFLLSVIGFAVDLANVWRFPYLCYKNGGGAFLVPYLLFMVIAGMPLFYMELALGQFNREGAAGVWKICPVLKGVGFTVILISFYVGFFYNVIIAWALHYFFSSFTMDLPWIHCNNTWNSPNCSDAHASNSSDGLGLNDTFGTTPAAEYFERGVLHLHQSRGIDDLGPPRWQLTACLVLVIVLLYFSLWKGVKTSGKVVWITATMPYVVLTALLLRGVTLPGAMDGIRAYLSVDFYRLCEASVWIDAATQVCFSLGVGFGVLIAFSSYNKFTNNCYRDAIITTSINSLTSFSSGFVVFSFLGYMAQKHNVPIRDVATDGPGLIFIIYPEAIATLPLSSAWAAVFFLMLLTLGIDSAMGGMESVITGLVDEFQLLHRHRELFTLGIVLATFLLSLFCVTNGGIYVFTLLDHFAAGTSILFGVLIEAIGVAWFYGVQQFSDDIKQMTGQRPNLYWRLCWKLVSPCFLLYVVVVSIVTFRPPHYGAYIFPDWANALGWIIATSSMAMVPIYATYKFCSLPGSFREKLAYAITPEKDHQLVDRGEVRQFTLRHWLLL

Assay [2] concerns the target T2, DAT (Rattus norvegicus (Rat), UniProt P23977). The assay is described as follows: Inhibition of [3H]WIN35428 binding to rat caudate DAT. The note with it: [3H]WIN35428. On the procedure: All of the test compounds were synthesized as described herein. […] The data from three experiments were pooled and fit to a dose-response curve equation (using KaleidaGraph; Synergy Software, Reading, Pa.) to yield an Emax and IC50 value. […] Selected compounds were also tested for their ability to inhibit [^3H]WIN35428 binding to rat caudate DAT.

Assay [3] concerns the target T1, dopamine transporter (DAT). The assay is described as follows: [3H]dopamine (DA) uptake inhibition in rat brain (caudate) synaptosomes. The class given is biochemical.
Assay [4] has as its target norepinephrine transporter (NET) (Rattus norvegicus, UniProt Q63380). The assay is described as follows: [3H]norepinephrine (NE) uptake inhibition in rat brain synaptosomes. The class given is biochemical. Particulars: for Emax: read-out: NET Uptake Emax; for IC50: read-out: NET Uptake IC50, mean ± S.D., n = 3. The procedure: Uptake inhibition assay for the norepinephrine transporter was conducted in rat brain synaptosomes as described elsewhere with minor modifications (Rothman et al., Synapse 39, 32-41 (2001)). Freshly removed whole brain minus cerebellum and caudate was homogenized in 10% ice-cold sucrose with 12 strokes of a hand-held Potter-Elvehjem homogenizer followed by centrifugation at 1000×g for 10 minutes. The supernatants were saved on ice and used immediately. Transporter activity at NET was assessed using 10 nM [^3H]norepinephrine. The assay buffer was Krebs-phosphate buffer containing 154.4 mM NaCl, 2.9 mM KCl, 1.1 mM CaCl2, 0.83 mM MgCl2, 5 mM glucose, 1 mg/mL ascorbic acid, and 50 μM pargyline. […] Uptake inhibition assays were conducted at 37° C. and were initiated by adding 100 μL of tissue to 900 μL assay buffer containing test drug and [^3H]norepinephrine. Test drugs were diluted in assay buffer containing 1 mg/mL bovine serum albumin. Nonspecific uptake was measured by incubating in the presence of 10 μM indatraline. The reactions were stopped after 10 minutes by rapid vacuum filtration with a cell harvester (BRANDEL) over GF/B filters (Whatman) presoaked in wash buffer maintained at 25° C. (10 mM Tris-HCl, pH 7.4/150 mM NaCl). Filters were rinsed with 6 mL wash buffer and retained tritium was quantified by a MicroBeta liquid scintillation counter (PerkinElmer) after overnight extraction in 0.6 mL of liquid scintillation cocktail (Cytoscint, ICN). The data from three experiments were pooled and fit to a dose-response curve equation (using Kaleidagraph), to yield an Emax and EC50 value.

Assay [5] deals with serotonin transporter (SERT) (Rattus norvegicus (Rat), UniProt P31652). Kind of assay: [3H]serotonin (5-HT) uptake inhibition in rat brain synaptosomes. The class given is biochemical. The note with it: for Emax: read-out: SERT Uptake Emax. The procedure:
Uptake inhibition assay for the serotonin transporter was conducted in rat brain synaptosomes as described elsewhere with minor modifications (Rothman et al., Synapse 39, 32-41 (2001)). Freshly removed whole brain minus cerebellum and caudate was homogenized in 10% ice-cold sucrose with 12 strokes of a hand-held Potter-Elvehjem homogenizer followed by centrifugation at 1000×g for 10 min. The supernatants were saved on ice and used immediately. Transporter activity at SERT was assessed using 5 nM [^3H]serotonin. The assay buffer was Krebs-phosphate buffer containing 154.4 mM NaCl, 2.9 mM KCl, 1.1 mM CaCl2, 0.83 mM MgCl2, 5 mM glucose, 1 mg/mL ascorbic acid, and 50 μM pargyline. […] Uptake inhibition assays were conducted at 25° C. and were initiated by adding 100 μL of tissue to 900 μL assay buffer containing test drug and [^3H]serotonin. Test drugs were diluted in assay buffer containing 1 mg/mL bovine serum albumin. Nonspecific uptake was measured by incubating in the presence of 10 μM indatraline. The reactions were stopped after 30 min by rapid vacuum filtration with a cell harvester (BRANDEL) over GF/B filters (Whatman) presoaked in wash buffer maintained at 25° C. (10 mM Tris-HCl, pH 7.4/150 mM NaCl). Filters were rinsed with 6 mL wash buffer and retained tritium was quantified by a MicroBeta liquid scintillation counter (PerkinElmer) after overnight extraction in 0.6 mL of liquid scintillation cocktail (Cytoscint, ICN). The data from three experiments were pooled and fit to a dose-response curve equation (using Kaleidagraph), to yield an Emax and EC50 value.

In assay [6] the target is T2, DAT. Kind of assay: d-amphetamine-induced, DAT-mediated [3H]DA release (shift experiments). The class given is biochemical. The note with it: for Apparent Kc: [Blocker]/((EC50-2/EC50-1) − 1); for Emax: read-out: d-Amphetamine Emax in presence of blocker, blocker concentration per row, mean ± S.D., n = 3.
Where [7] appears, read: mean ± S.D., n = 3, unit as printed in head (text gives 1100 nM where table prints 1.1).
[8] abbreviates: mean ± S.D., n = 3, read-out: DAT Uptake Emax.
The mark [9] stands for this setting: values in Table 9, read-out: Emax for DAT Uptake Inhibition.
Where [10] appears, read: rat brain synaptosomes, 5 nM [3H]serotonin, mean ± SD.

T2 sequence (P23977 whole entry): as above
serotonin transporter (SERT), sequence (P31652 whole entry): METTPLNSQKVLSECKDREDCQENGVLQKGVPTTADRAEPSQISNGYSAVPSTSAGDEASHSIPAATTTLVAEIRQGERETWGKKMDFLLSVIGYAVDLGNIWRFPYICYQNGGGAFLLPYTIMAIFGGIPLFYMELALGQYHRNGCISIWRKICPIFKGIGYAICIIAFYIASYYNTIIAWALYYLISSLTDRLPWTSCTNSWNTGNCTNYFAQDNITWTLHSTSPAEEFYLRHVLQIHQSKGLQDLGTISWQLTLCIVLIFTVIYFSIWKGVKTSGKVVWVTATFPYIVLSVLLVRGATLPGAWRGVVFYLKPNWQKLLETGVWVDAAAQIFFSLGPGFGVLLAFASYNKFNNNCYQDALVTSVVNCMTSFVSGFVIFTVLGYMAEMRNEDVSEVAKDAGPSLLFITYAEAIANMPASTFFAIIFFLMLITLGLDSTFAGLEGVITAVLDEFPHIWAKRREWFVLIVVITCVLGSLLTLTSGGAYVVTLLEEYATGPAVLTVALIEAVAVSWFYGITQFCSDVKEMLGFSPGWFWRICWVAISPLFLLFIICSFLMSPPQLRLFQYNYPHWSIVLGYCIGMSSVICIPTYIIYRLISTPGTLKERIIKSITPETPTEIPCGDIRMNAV
norepinephrine transporter (NET), sequence (Q63380 1-617): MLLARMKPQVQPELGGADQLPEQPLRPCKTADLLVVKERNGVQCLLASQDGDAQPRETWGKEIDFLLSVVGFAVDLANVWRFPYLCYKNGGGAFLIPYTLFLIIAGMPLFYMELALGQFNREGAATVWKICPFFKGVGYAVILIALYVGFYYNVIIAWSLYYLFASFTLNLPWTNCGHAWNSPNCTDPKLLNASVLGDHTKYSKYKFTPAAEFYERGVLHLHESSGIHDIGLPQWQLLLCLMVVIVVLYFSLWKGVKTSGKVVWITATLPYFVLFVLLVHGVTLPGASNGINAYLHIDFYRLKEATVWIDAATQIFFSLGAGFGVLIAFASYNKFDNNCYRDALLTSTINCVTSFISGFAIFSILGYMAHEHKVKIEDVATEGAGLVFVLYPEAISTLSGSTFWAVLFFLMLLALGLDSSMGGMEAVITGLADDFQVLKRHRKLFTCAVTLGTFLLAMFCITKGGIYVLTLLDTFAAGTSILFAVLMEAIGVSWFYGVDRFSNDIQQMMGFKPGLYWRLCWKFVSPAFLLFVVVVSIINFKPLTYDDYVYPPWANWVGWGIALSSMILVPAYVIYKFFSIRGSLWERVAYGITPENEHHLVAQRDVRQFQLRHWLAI

On to `c1ccc(C(CNc2nc(-c3cnc4nccn4c3)nc3ccccc23)c2ccccc2)cc1` [SRI-29991], for which, in assay [1] ([3H]MPP+ release), the “Apparent Kc” value is -1070 nM. In addition, the Emax in assay [1] ([3H]MPP+ release) is 102 ± 2%; on DAT [2] (mean ± S.D., n = 3) it was 18 ± 4%; in assay [3] (setting [8]), 68 ± 1%; in assay [3] (setting [9]), 68%; in assay [4], 69 ± 2%; in assay [5] (mean ± S.D., n = 3), 51 ± 1%. In addition, the IC50 at DAT [2] (setting [7]) came to 1220 ± 1120 nM; in assay [4], 63 ± 9 nM.
For `c1ccc(C(CCNc2nc(-c3ccc4[nH]ccc4c3)nc3ccccc23)c2ccccc2)cc1` [SRI-29213], the entries for the “Apparent Kc” value (at DAT [6]; in assay [1] ([3H]MPP+ release)) were 6.7 µM and 886 nM, respectively. Further, the Emax was determined as 71 ± 3% at DAT [6]; 78 ± 2% in assay [1] ([3H]MPP+ release); 94 ± 2% at DAT [2] (mean ± S.D., n = 3); 81 ± 3% in assay [3] (setting [8]); 81% in assay [3] (setting [9]); 77 ± 3% in assay [4]. Also, in assay [5] (mean ± S.D., n = 3), the Emax was 43 ± 4%. The IC50 at DAT [2] (setting [7]) came out at 200 nM; in assay [3] (mean ± S.D., n = 3) it was 16 ± 4 nM; in assay [4], 346 ± 59 nM; in assay [5] (mean ± S.D., n = 3), 89 ± 51 nM.
On to `Cc1cc2nccn2cc1-c1nc(NCC(c2ccccc2)c2ccc[nH]2)c2ccccc2n1` (stereo not drawn) [SRI-31040], for which, in assay [1] ([3H]MPP+ release), the “Apparent Kc” value is on record as 55 nM. Further, the Emax came out at 105 ± 3% in assay [1] ([3H]MPP+ release); 91 ± 7% at DAT [2] (mean ± S.D., n = 3); 69 ± 1% in assay [3] (setting [8]); 69% in assay [3] (setting [9]); 70 ± 4% in assay [4]; 54 ± 2% in assay [5] (mean ± S.D., n = 3). Besides, the IC50 at DAT [2] (setting [7]) turned out to be 3740 ± 1100 nM; in assay [4], 11 ± 4 nM.
As for `CS(=O)(=O)Nc1ccc(-c2nc(NCC(c3ccccc3)c3ccncc3)c3ccccc3n2)cc1` (stereo not drawn) [Compound 10, N-(4-(4-((2-phenyl-2-(pyridin-4-yl)ethyl)amino)quinazolin-2-yl)phenyl)methanesulfonamide], the Emax at 0.125 µM in assay [1] (read-out: D-Amphetamine Emax in presence of compound, [3H]MPP+ release, compound concentration 125 nM, mean ± SD) turned out to be 103 ± 3%. Also, the Emax was 103 ± 3% in assay [1] ([3H]MPP+ release); 76 ± 2% in assay [4]; 56 ± 1% in assay [5] (mean ± S.D., n = 3). Moreover, the “DAT Binding Emax” value at DAT [2] (mean ± S.D., n = 3) is 52 ± 6%. For the same molecule, the “DAT Uptake Emax” value in assay [3] (mean ± S.D., n = 3) was found to be 71 ± 1%. Besides, the “DA Uptake Emax” value in assay [3] (rat caudate synaptosomes, 5 nM [3H]dopamine, mean ± SD) was found to be 71 ± 1 % I. Further, the “NE Uptake Emax” value in assay [4] (rat brain synaptosomes, 10 nM [3H]norepinephrine, mean ± SD) came to 76 ± 2 % I. For the same molecule, the EC50 in assay [4] (read-out: NE Uptake EC50, rat brain synaptosomes, 10 nM [3H]norepinephrine, mean ± SD) was 44 ± 6 nM; in assay [5] (setting [10]), 8.7 ± 0.9 nM. In addition, the IC50 in assay [4] was 44 ± 6 nM. Moreover, in assay [5] (setting [10]), the “5HT Uptake Emax” value is given as 56 ± 1 % I.
With `c1ccc(C(CNc2nc(-c3ccc4nccn4c3)nc3ccccc23)c2ccccc2)cc1` [SRI-29574], the “Apparent Kc” value on DAT [6] is -0.239 µM; in assay [1] ([3H]MPP+ release) it was -368 nM. For the same molecule, the Emax at DAT [6] amounted to 95 ± 2%; in assay [1] ([3H]MPP+ release) it was 103 ± 3%; in assay [3] (setting [8]) it was 68 ± 2%; in assay [3] (setting [9]) it was 68%; in assay [4], 72 ± 4%; in assay [5] (mean ± S.D., n = 3), 52 ± 2%. Besides, in assay [1] (blocking concentration ~25 times DAT uptake IC50), the “Effect on d-amphetamine-induced DAT-mediated [3H]MPP+ release curve, in words” value is “increased EC50 and decreased Emax”. In addition, the “Inhibition of DAT binding, in words” value at DAT [2] was “inactive”. Further, at DAT [2] (mean ± S.D., n = 3), the “DAT Binding Emax” value is “Inactive”. In addition, at DAT [2] (setting [7]), the “DAT Binding IC50” value was “Inactive”. For the same molecule, the “Efficacy of [3H]DA (DAT) uptake inhibition, in words” value in assay [3] is recorded as “partially inhibited”. The IC50 in assay [4] came out at 52 ± 15 nM.
For the molecule `CN(C)c1ccc(-c2nc(NCC(c3ccccc3)c3ccccc3)c3ccccc3n2)cn1` [SRI-29779], the “Apparent Kc” value in assay [1] ([3H]MPP+ release) was found to be 912 nM. In addition, the Emax in assay [1] ([3H]MPP+ release) worked out at 99 ± 2%; at DAT [2] (mean ± S.D., n = 3), 83 ± 3%; in assay [3] (setting [8]), 63 ± 3%; in assay [3] (setting [9]) it was 63%; in assay [4], 71 ± 6%; in assay [5] (mean ± S.D., n = 3) it was 51 ± 2%. For the same molecule, the IC50 on DAT [2] (setting [7]) worked out at 1200 ± 200 nM; in assay [4] it was 147 ± 63 nM.
For `c1ccc(C(CNc2nc(-c3cnc4nccn4c3)nc3ccccc23)c2ccncc2)cc1` (stereo not drawn) [SRI-30810], the “Apparent Kc” value in assay [1] ([3H]MPP+ release) worked out at 1200 nM. Also, the Emax in assay [1] ([3H]MPP+ release) is 104 ± 5%; at DAT [2] (mean ± S.D., n = 3), 25 ± 2%; in assay [3] (setting [8]) it was 64 ± 1%; in assay [3] (setting [9]) it was 64%; in assay [4], 69 ± 2%; in assay [5] (mean ± S.D., n = 3) it was 51 ± 2%. Also, the results for the IC50 (on DAT [2] (setting [7]); in assay [4]) were 820 ± 360 nM and 60 ± 10 nM, respectively.
